We go through eleven substances from US5622933A, “Multiple branch peptide constructions for use against HIV” (priority 1993, dated 1997).

Values joined by “and” are separate entries in the source; they are usually repeats but may differ in a detail not shown here. Equal values may be shown once. Read-outs that look alike come from different tables or passages of the source. Ends that are not written are not given here.

One data set concerns HIV-1MN. Description: Syncytia formation blockage (chronically infected cells + uninfected Molt-4 cells). Type of data set: cell-based. More on the design: key: -: The presence of syncytia is indicated by + signs, allocated in approximate proportion to the quantities counted; The presence of syncytia is indicated by + signs, allocated in approximate proportion to the quantities counted; ++: The presence of syncytia is indicated by + signs, allocated in approximate proportion to the quantities counted; +++: The presence of syncytia is indicated by + signs, allocated in approximate proportion to the quantities counted; ++++: The presence of syncytia is indicated by + signs, allocated in approximate proportion to the quantities counted. The method, then: (§1) CEM or C8166 cells were chronically infected with HIV-1 Lai or HIV-2 Rod, or HIV-1MN, respectively. Infected cells (1×10^4) were incubated for 2 hours with various concentrations of MBPCs in 96-well plates. Uninfected Molt-4 cells (4×10^4) were then added in […]. Syncytia were counted after 18 hours at 37° C.

The subject of a further data set is HIV-1Lai. The description is as above. The data set is classed as cell-based. More on the design: key: -: The presence of syncytia is indicated by + signs, allocated in approximate proportion to the quantities counted; The presence of syncytia is indicated by + signs, allocated in approximate proportion to the quantities counted; ++: The presence of syncytia is indicated by + signs, allocated in approximate proportion to the quantities counted; +++: The presence of syncytia is indicated by + signs, allocated in approximate proportion to the quantities counted; ++++: The presence of syncytia is indicated by + signs, allocated in approximate proportion to the quantities counted. The method, then: as §1

The next data set deals with HIV-2Rod. The data set is described as above. Type of data set: cell-based. More on the design: key: -: The presence of syncytia is indicated by + signs, allocated in approximate proportion to the quantities counted; The presence of syncytia is indicated by + signs, allocated in approximate proportion to the quantities counted; ++: The presence of syncytia is indicated by + signs, allocated in approximate proportion to the quantities counted; +++: The presence of syncytia is indicated by + signs, allocated in approximate proportion to the quantities counted; ++++: The presence of syncytia is indicated by + signs, allocated in approximate proportion to the quantities counted. Here is the method:
as §1

Another data set relates to C57/BL6 black mice. Description: Immunogenicity in mice (serum ELISA for anti-MBPC3 antibody). The data set is classed as in vivo, mouse. To be noted: coat GPGRAF monomer 10 μg/ml, listed as Mo. Here is the method: The injection route was intraperitoneal. The blood samples were collected by sub-orbital eye punction. The blood samples were left for 1 hour at 37° C., then overnight at 4° C., and the supernatants (serum samples) thus obtained were separated from the pellets. Sera were tested by ELISA, looking for specific anti-MBPC3 antibody.
(§2) […] After saturation with 400 μL of casein (5 g/100 ml), different serum dilutions were added for 2 hours at 37° C. The controls were sera from non-immunized rabbits and mice. After rinsing (5×), 50 μl of 1:5000 of peroxidase-labeled swine anti-rabbit IgG or anti-mouse IgG (Dakopatts, Copenhagen, Denmark) were added for 1 hour at 37° C. After further rinsing (5×), 100 μl of ortho-phenylenediamine were added for 30 min in the dark at room temperature. The reaction was stopped by adding 50 μl of 4N sulfuric acid, and optical density (OD) ratios were determined at 492/620 nm.

The next data set concerns New Zealand rabbits. Description: Immunogenicity in rabbits (serum ELISA for anti MBPC.3 antibodies). The data set is classed as in vivo, rabbit. To be noted: coat GPGRAF monomer 10 μg/ml. Here is the method:
[…] This procedure was repeated subcutaneously with incomplete Freud's adjuvant on days 30, 60, 90 and 120. Sera were tested by ELISA, looking for specific anti MBPC.3 antibodies. Data presented here is from the last serum samples (120+7 days).
as §2
In general terms: In an ELISA, binding on a coated surface is turned into a signal by an enzyme label.

The test system of another data set is 8E5 cells. The data set is described as follows: Toxicity in the cell fusion test (MTT assay or trypan blue exclusion). Type of data set: cell-based. The following applies: 5 × 10^-5 M.
The test system of another data set is HIV-1 (IIIB). The data set is classed as cell-based. To be noted: for number of syncytia (HIV-1 induced cell fusion): 24 hours. From the text:
50×10^3 8E5 cells chronically infected with a RT-deficient HIV-I (IIIB) isolate, were co-cultivated with 150×10^3 phytohemagglutinin (PHA) stimulated human peripheral blood lymphocytes (PBLs) in the presence of the indicated peptide in 96-well plates. The MBPCs used are described by the peptides attached, and the number thereof, to a core lysine matrix, which is designated HLC. All amino acids used for this experiment were in dextro form.

A further data set relates to HIV-1 (89.6). Description: Infection of and syncytia formation in human primary macrophages. The data set is classed as cell-based. The following applies: 5×10^-5 M; 10,000 TCID50. Here is the method:
MBPCs were also evaluated for their ability to block the infection of human primary macrophages by a highly cytopathic macrophage-tropic isolate, HIV-1 (89.6). Mononuclear cells were isolated from leukophoresis units enriched for monocytes by Ficoll-Hypaque density separation. Macrophages were purified by adherence to plastic in RPMI 1640 supplemented with 10% fetal calf serum and 5% human AB serum. […] 5×10^5 cells were treated for 45 minutes with the indicated MBPC at concentrations of 5×10^-5 M and subsequently exposed to 10,000 TCID50 of the macrophage-tropic isolate HIV (89.6). […] After thorough washing, the cells were fed again with medium and analyzed for HIV-1 p24^gag production and syncytia formation 4 days post-infection.

“(IGPGRAF)4 -(K)2 -K-βA-OH (also: four copies on lysine core (K)2-K-βA-OH) [MBPC.4]”: the Syncytia formation result in the data set with HIV-1MN (MBPC Conc. 5 × 10^-6 M) is recorded as “++++”; with HIV-1MN (MBPC Conc. 10^-6 M), “++++”; in the data set with HIV-1MN (MBPC Conc. 10^-7 M), “+++”; in the data set on HIV-1Lai (MBPC Conc. 5 × 10^-6 M), “+++”; in the data set with HIV-1Lai (MBPC Conc. 10^-6 M), “++++”; in the data set with HIV-1Lai (MBPC Conc. 10^-7 M), “++++”. Further, the Syncytia formation entry in the data set on HIV-2Rod (MBPC Conc. 5 × 10^-6 M), in the data set on HIV-2Rod (MBPC Conc. 10^-6 M) and with HIV-2Rod (MBPC Conc. 10^-7 M) was “++++” throughout.

For the substance “GPGRAF [Mono.3, GPGRAF, reference compound]”, the “optical density (OD) ratio 492/620 nm (×10^3)” value with C57/BL6 black mice (plate 1, mouse serum 10^-2) is 1224 and 1135; in the data set on C57/BL6 black mice (plate 1, mouse serum 10^-3), 310 and 287; in the data set on C57/BL6 black mice (plate 1, mouse serum 10^-4) it was 104 and 185; with C57/BL6 black mice (plate 2, mouse serum 10^-2), 1539 and 1575; in the data set with C57/BL6 black mice (plate 2, mouse serum 10^-3), 342 and 335; in the data set with C57/BL6 black mice (plate 2, mouse serum 10^-4), 95 and 126. Also, the “optical density (OD) ratio 492/620 nm (×10^3)” value in the data set on C57/BL6 black mice (plate 4, mouse serum 10^-2) is 1231 and 1317; with C57/BL6 black mice (plate 4, mouse serum 10^-3), 380 and 386; in the data set on C57/BL6 black mice (plate 4, mouse serum 10^-4), 123 and 122; with New Zealand rabbits (plate 1, rabbit serum 10^-2), 2000; in the data set with New Zealand rabbits (plate 1, rabbit serum 10^-3) it was 2000; in the data set on New Zealand rabbits (plate 1, rabbit serum 10^-4, listed as Mo), 677 and 725. Further, the “optical density (OD) ratio 492/620 nm (×10^3)” value with New Zealand rabbits (plate 2, rabbit serum 10^-2) was 2000; in the data set on New Zealand rabbits (plate 2, rabbit serum 10^-3, listed as Mo) it was 2000 and 1909; with New Zealand rabbits (plate 2, rabbit serum 10^-4, listed as Mo), 588 and 625; with New Zealand rabbits (plate 4, rabbit serum 10^-2), 811; in the data set on New Zealand rabbits (plate 4, rabbit serum 10^-3, listed as Mo), 245 and 194.

“[RKSIHKGPGRAFYT]4 -MLC (also: tetrameric multibranched MLC construct)”: the Toxicity result with 8E5 cells is on record as “Toxic”. Besides, the “number of syncytia (HIV-1 induced cell fusion)” value (shortened to “number of syncytia”) with HIV-1 (IIIB) (5 × 10^-6 M) is given as “- (- indicates the total absence of syncytia in the well)”; in the data set on HIV-1 (IIIB) (5 × 10^-7 M), “+++”.

In the case of [GPG(R)D AF]8 -MLC, the “number of syncytia” value in the data set with HIV-1 (IIIB) (5 × 10^-6 M) is on record as “- (- indicates the total absence of syncytia in the well)”; in the data set on HIV-1 (IIIB) (5 × 10^-7 M) it was “+++”. In addition, the “inhibition of macrophage infection, in words” value with HIV-1 (89.6) was “significantly less active than [GPGRAF]8 -MLC”.

“[Ac-GPGRAF]8 -MLC (also: eight copies on MLC (multibranched lysine core)) [N-terminal acetylation]”: the “inhibition of syncytia formation / cell fusion, in words” value in the data set with HIV-1 (IIIB) was “significant loss of activity”. The “number of syncytia” value in the data set on HIV-1 (IIIB) (5 × 10^-5 M) is listed as “- (- indicates the total absence of syncytia in the well)”; in the data set on HIV-1 (IIIB) (5 × 10^-6 M), “+++”; with HIV-1 (IIIB) (5 × 10^-7 M), “+++”.

As for “[RKSIHTGPGRAFYT]4 -MLC (also: tetrameric multibranched MLC construct)”, in the data set on 8E5 cells, the Toxicity entry was “Toxic”. Further, the figures for the “number of syncytia” value with HIV-1 (IIIB) (5 × 10^-6 M) and with HIV-1 (IIIB) (5 × 10^-7 M) were “- (- indicates the total absence of syncytia in the well)” and “+++”, respectively.

Consider “RAFVTIGK [RAFVTIGK (SEQ ID NO:6), reference compound]”, for which the “number of syncytia” value is reported as “- (- indicates the total absence of syncytia in the well)” in the data set with HIV-1 (IIIB) (5 × 10^-5 M), “+++” in the data set with HIV-1 (IIIB) (5 × 10^-6 M) and “+++” in the data set with HIV-1 (IIIB) (5 × 10^-7 M).

As to [GPGRAF]8 -MLCD, the “number of syncytia” value in the data set on HIV-1 (IIIB) (5 × 10^-5 M), in the data set with HIV-1 (IIIB) (5 × 10^-6 M) and in the data set on HIV-1 (IIIB) (5 × 10^-7 M) was “+++” in each case. Moreover, in the data set with HIV-1 (89.6), the “inhibition of macrophage infection, in words” value was “significantly less active than [GPGRAF]8 -MLC”.

Turning to “[IGPGRAF]8 -MLC (also: octameric multibranched MLC construct)”, the “inhibition of syncytia formation / cell fusion, in words” value with HIV-1 (IIIB) was “significant loss of activity”. The entries for the “number of syncytia” value in the data set on HIV-1 (IIIB) (5 × 10^-5 M), in the data set on HIV-1 (IIIB) (5 × 10^-6 M) and in the data set on HIV-1 (IIIB) (5 × 10^-7 M) were “- (- indicates the total absence of syncytia in the well)”, “±” and “+++”, respectively.

In the case of [GPGRA]8 -MLC, in the data set on HIV-1 (IIIB), the “inhibition of syncytia formation / cell fusion, in words” value was “did not inhibit cell fusion”. Also, the “number of syncytia” value in the data set on HIV-1 (IIIB) (5 × 10^-5 M), in the data set with HIV-1 (IIIB) (5 × 10^-6 M) and in the data set on HIV-1 (IIIB) (5 × 10^-7 M) was “+++” in each case.

Take [GPGR]8 -MLC: in the data set with HIV-1 (IIIB), the “inhibition of syncytia formation / cell fusion, in words” value is “did not inhibit cell fusion”. Further, the “number of syncytia” value with HIV-1 (IIIB) (5 × 10^-5 M), in the data set on HIV-1 (IIIB) (5 × 10^-6 M) and in the data set with HIV-1 (IIIB) (5 × 10^-7 M) was “+++” throughout.
